Two molecules from patent US7074761B1, “Peptides and production and use thereof” (Takeda Chemical Ind., Ltd., priority 1996, dated 2006) can be followed below.

Structures are written as SMILES. Where a SMILES comes first, the peptide text is derived from it. Bridges are numbered along the chain shown (N, C = ends).

One assay concerns the target T1, human SSTR4 (Homo sapiens, UniProt P31391).
T1 construct: expressed in transfected cells; host or cells: CHO(dhfr-) cells, clone SSTR4-1-2, plasmid pA-1-11-SSTR4 (vector pAKKO-111)
The experiment in a line: cAMP accumulation inhibiting activity in SSTR4 expressing CHO cells (forskolin stimulated). The format is cell-based. To be noted: forskolin 10 μM, CHO cells SSTR4-1-2; read-out: ED50, inhibition of intracellular cAMP accumulation, SSTR4. The protocol:
For measuring the intracellular accumulations of cyclic adenosine 3′,5′-monophosphate (cAMP), the human somatostatin receptor expressing cell lines SSTR2-HS5-9, SSTR3-15-19, SSTR4-1-2 and SSTR5-32-4 respectively described in Reference Example 2 (3), Reference Example 3 (3), Reference Example 4 (3) and Reference Example 5 (3) were multiplied on 24-well plates until confluency. Said cells were washed with two 1-ml portions of medium A [Dulbecco-'s modified Eagle's medium (DMEM), 20 mM 2-[4-(2-hydroxyethyl)-1-piperazinyl]ethanesulfonic acid (HEPES) (pH. 7.5), 0.2% BSA, 0.2 mM 3-isobutyl-1-methylxanthine (IBMX)] and then 400 μl of medium A was added to each well and incubation was carried out at 37° C. for 1 hour. To each well were added 50 μl of a hCS-15 or hCS-17 solution (each diluted to a concentration 10 times the final concentration with medium A) and 50 μl of a forskolin solution (final concentration: 10 μM), and incubation was carried out at 37° C. for 30 minutes. The cells were washed with two 1-ml portions of medium A and then 500 μl of medium A and 100 μL of 20% aqueous perchloric acid solution were added to each well, followed by standing at 4° C. for 20 minutes for cell lysis. […] The amount of cAMP contained in this extract was determined using an Amersham's kit (cAMP EIA system).
For orientation: cAMP levels reflect the balance of adenylyl cyclase and phosphodiesterase activity.

A further assay concerns rat electroencephalogram. Nature of the assay: Effect on the rat electroencephalogram (sleep-wakefulness). The class given is in vivo. The procedure:
Using male Jcl:Wistar rats (b. wt. 300˜350 g, approx.) under pentobarbital anesthesia (50 mg/kg, i.p.), the head was immobilized in a rat brain stereotaxic apparatus and the skull was drilled for placement of a screw electrode for cortical derivation and a stainless steel bipolar electrode for hippocampal derivation (A:−2.6, L:2.5, H:3.5, Pellegrino and Cushman Brain Atlas). A bipolar stainless steel needle electrode for recording an electromyogram was also inserted into the muscle layer in the dorsocervical region. All the electrodes were connected to a socket on the cranium and fixed with a dental cement. For administration of the test drug solution into the paracele, a 27-G stainless steel guide cannula was inserted in such a manner that the coordinates of its tip would be A:−0.4, L:1.7, H:1.7, and was fixed together with the EEG electrodes using a dental cement. A stilet was inserted into the guide cannula to prevent plugging of the cannula bore by tissue and blood. After postoperative recovery, the animal was submitted to the experiment. The rat was acclimatized to the experimental environment for at least 1 hour and either hCS-17 dissolved in phosphate buffered saline (PBS) or PBS was administered into the paracele via a 30-G infusion cannula. The electroencephalogram was recorded for 4 hours following administration of the test drug. The dose volume was 5 μl and the dose was 0.1 or 1 nmol. Control animals were similarly dosed with PBS.
The sleep-wakefulness was monitored by visual reading of the polygram and evaluated by frequency analysis and power analysis and classified into the following categories.
During this time, electromyographic activity is high.
(2) SWS1 (Shallow-and-Slow Wave Sleep) and SWS2 (Deep-and-Slow Wave Sleep):
The rat assumes a sleeping posture and delta waves (spindle waves) or high-amplitude, slow-waves appear in the cerebral cortex and high-amplitude, slow-waves, appear in the hippocampal derivation. During this period, electromyographic activity is decreased (SWS1) or absent (SWS2).
(3) PS (Paradoxical Sleep):
Alpha waves (low-amplitude, fast waves) appear in the cerebral cortex and theta waves (rhythmic waves) in the hippocampal derivation. During this period, electromyographic activity is absent.
Using 5˜6 rats per group, hCS-17 and PBS were respectively injected into the same rat to evaluate the relative effect on wakefulness. Analysis for statistical significance was made by paired t-test.

T1 sequence (P31391 whole entry): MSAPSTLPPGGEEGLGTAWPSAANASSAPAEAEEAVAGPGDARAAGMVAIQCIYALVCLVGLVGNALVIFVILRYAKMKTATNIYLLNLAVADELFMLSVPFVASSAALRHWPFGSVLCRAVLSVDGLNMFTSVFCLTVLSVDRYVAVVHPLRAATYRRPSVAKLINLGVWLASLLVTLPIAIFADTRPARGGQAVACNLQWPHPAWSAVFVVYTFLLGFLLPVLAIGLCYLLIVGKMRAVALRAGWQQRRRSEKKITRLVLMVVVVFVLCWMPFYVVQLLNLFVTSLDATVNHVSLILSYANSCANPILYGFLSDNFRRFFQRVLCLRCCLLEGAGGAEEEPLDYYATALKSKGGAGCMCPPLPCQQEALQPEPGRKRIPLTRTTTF

As for `CSCC[C@H](N)C(=O)N1CCC[C@H]1C(=O)N[C@H]1CSSC[C@@H](C(=O)N[C@@H](CCCCN)C(=O)O)NC(=O)[C@H](CO)NC(=O)[C@H](CO)NC(=O)[C@H](Cc2ccccc2)NC(=O)[C@H]([C@@H](C)O)NC(=O)[C@H](CCCCN)NC(=O)[C@H](Cc2c[nH]c3ccccc23)NC(=O)[C@H](Cc2ccccc2)NC(=O)[C@H](Cc2ccccc2)NC(=O)[C@H](CC(N)=O)NC(=O)[C@H](CCCNC(=N)N)NC1=O` [hCS-15] (H-MPCRNFFWKTFSSCK-OH; disulfide 3-14; N-terminus and C-terminus assumed), the EC50 at human SSTR4 turned out to be 0.2 nM.

For the molecule `CSCC[C@H](NC(=O)[C@H](CCCNC(=N)N)NC(=O)[C@@H](N)CC(=O)O)C(=O)N1CCC[C@H]1C(=O)N[C@H]1CSSC[C@@H](C(=O)N[C@@H](CCCCN)C(=O)O)NC(=O)[C@H](CO)NC(=O)[C@H](CO)NC(=O)[C@H](Cc2ccccc2)NC(=O)[C@H]([C@@H](C)O)NC(=O)[C@H](CCCCN)NC(=O)[C@H](Cc2c[nH]c3ccccc23)NC(=O)[C@H](Cc2ccccc2)NC(=O)[C@H](Cc2ccccc2)NC(=O)[C@H](CC(N)=O)NC(=O)[C@H](CCCNC(=N)N)NC1=O` [hCS-17], in the assay with rat electroencephalogram (0.1 nmol into the paracele), the “PS (paradoxical sleep) occupancy time vs PBS” value is recorded as “significantly decreased”, the “SWS1 (shallow-and-slow wave sleep) occupancy time vs PBS” value is on record as “tendency toward decrease”, the “SWS2 (deep-and-slow wave sleep) occupancy time vs PBS” value is given as “toward increase” and the “animals showing flattening of the EEG patterns” value is 2 out of 5. In addition, the “wakefulness time (percent occupancy of 4 hour EEG recording) vs PBS” value with rat electroencephalogram (0.1 nmol into the paracele) is listed as “not different from the PBS control group”. For the same molecule, in the assay on rat electroencephalogram (1 nmol into the paracele), the “PS (paradoxical sleep) occupancy time vs PBS” value is given as “decrease”, the “SWS1 (shallow-and-slow wave sleep) occupancy time vs PBS” value is given as “significant decrease”, the “SWS2 (deep-and-slow wave sleep) occupancy time vs PBS” value was “increase” and the “animals showing flattening of the EEG patterns” value is on record as 4 out of 6. For the same molecule, the “duration of flattening of cortical and hippocampal EEG patterns” value with rat electroencephalogram (immediately after administration into the paracele) is 3˜5 minutes.
